Assay results taken from PubChem BioAssay (NCI).
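The concentration for 50% growth inhibition is given as GI50. TGI marks complete inhibition of growth.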

Columns and labels:
Test in all cases: NCI anticancer screen, dose series, 384-well format
786-0 renal = tested on: 786-0 renal
A498 renal = tested on: A498 renal
A549 NSCLC = tested on: A549 NSCLC
ACHN renal = tested on: ACHN renal
BT-549 breast = tested on: BT-549 breast
CAKI-1 renal = tested on: CAKI-1 renal
CCRF-CEM leukemia = tested on: CCRF-CEM leukemia
COLO 205 colon = tested on: COLO 205 colon
DU-145 prostate = tested on: DU-145 prostate
EKVX NSCLC = tested on: EKVX NSCLC
HCC-2998 colon = tested on: HCC-2998 colon
HCT-116 colon = tested on: HCT-116 colon
HCT-15 colon = tested on: HCT-15 colon
HL-60(TB) leukemia = tested on: HL-60(TB) leukemia
HOP-62 NSCLC = tested on: HOP-62 NSCLC
HOP-92 NSCLC = tested on: HOP-92 NSCLC
HS 578T breast = tested on: HS 578T breast
HT29 colon = tested on: HT29 colon
IGROV1 ovarian = tested on: IGROV1 ovarian
K-562 leukemia = tested on: K-562 leukemia
KM12 colon = tested on: KM12 colon
LOX IMVI melanoma = tested on: LOX IMVI melanoma
MALME-3M melanoma = tested on: MALME-3M melanoma
MCF7 breast = tested on: MCF7 breast
MDA-MB-231 breast = tested on: MDA-MB-231 breast
MDA-MB-435 melanoma = tested on: MDA-MB-435 melanoma
MDA-MB-468 breast = tested on: MDA-MB-468 breast
MOLT-4 leukemia = tested on: MOLT-4 leukemia
NCI-H226 lung = tested on: NCI-H226 lung
NCI-H23 lung = tested on: NCI-H23 lung
NCI-H322M lung = tested on: NCI-H322M lung
NCI-H460 NSCLC = tested on: NCI-H460 NSCLC
NCI-H522 lung = tested on: NCI-H522 lung
NCI/ADR-RES ovarian = tested on: NCI/ADR-RES ovarian
OVCAR-3 ovarian = tested on: OVCAR-3 ovarian
OVCAR-4 ovarian = tested on: OVCAR-4 ovarian
OVCAR-5 ovarian = tested on: OVCAR-5 ovarian
PC-3 prostate = tested on: PC-3 prostate
RPMI-8226 leukemia = tested on: RPMI-8226 leukemia
RXF 393 renal = tested on: RXF 393 renal
SF-268 CNS = tested on: SF-268 CNS
SF-295 CNS = tested on: SF-295 CNS
SF-539 CNS = tested on: SF-539 CNS
SK-MEL-2 melanoma = tested on: SK-MEL-2 melanoma
SK-MEL-28 melanoma = tested on: SK-MEL-28 melanoma
SK-MEL-5 melanoma = tested on: SK-MEL-5 melanoma
SK-OV-3 ovarian = tested on: SK-OV-3 ovarian
SN12C renal = tested on: SN12C renal
SNB-19 CNS = tested on: SNB-19 CNS
SNB-75 CNS = tested on: SNB-75 CNS
SR leukemia = tested on: SR leukemia
TK-10 renal = tested on: TK-10 renal
U251 glioblastoma = tested on: U251 glioblastoma
UACC-62 melanoma = tested on: UACC-62 melanoma
UO-31 renal = tested on: UO-31 renal

With O=C1NC(=O)[C@@H](c2cn3c4c(cccc24)CCC3)[C@@H]1c1c[nH]c2ccccc12 the GI50 ([…]-0 renal) was 332 nM, the TGI (786-0 renal) was 12.4 µM and the GI50 (A498 renal) was 307 nM. For the same compound, the TGI (A498 renal) was 8.83 µM, the GI50 (A549 NSCLC) was 413 nM and the TGI (A549 NSCLC) was 14.1 µM. It also gave a GI50 (ACHN renal) of 409 nM, a TGI (ACHN renal) of 14.5 µM and a GI50 (BT-549 breast) of 154 nM. For the same compound, the TGI (BT-549 breast) was 718 nM, the GI50 (CAKI-1 renal) was 71.2 nM and the TGI (CAKI-1 renal) was 12 µM. The GI50 (CCRF-CEM leukemia) was 119 nM, the TGI (CCRF-CEM leukemia) was 246 nM and the GI50 (COLO 205 colon) was 281 nM. For the same compound, the TGI (COLO 205 colon) was 7.77 µM, the GI50 (DU-145 prostate) was 451 nM and the TGI (DU-145 prostate) was 2990 nM. It also gave a GI50 (EKVX NSCLC) of 340 nM, a TGI (EKVX NSCLC) of 13.9 µM and a TGI (HCC-2998 colon) of 1260 nM. It also gave a GI50 (HCT-116 colon) of 285 nM, a TGI (HCT-116 colon) of 3.63 µM and a GI50 (HCT-15 colon) of 40.6 nM. The TGI (HCT-15 colon) was 4.94 µM, the GI50 (HL-60(TB) leukemia) was 124 nM and the TGI (HL-60(TB) leukemia) was 252 nM. For the same compound, the GI50 (HOP-62 NSCLC) was 252 nM, the TGI (HOP-62 NSCLC) was 11.8 µM and the GI50 (HOP-92 NSCLC) was 410 nM. It also gave a TGI (HOP-92 NSCLC) of 10.7 µM, a GI50 (HS 578T breast) of 123 nM and a TGI (HS 578T breast) of 295 nM. The GI50 (HT29 colon) was 180 nM, the TGI (HT29 colon) was 494 nM and the GI50 (IGROV1 ovarian) was 403 nM. It also gave a TGI (IGROV1 ovarian) of 12.4 µM, a GI50 (K-562 leukemia) of 21.5 nM and a TGI (K-562 leukemia) of 373 nM. The GI50 (KM12 colon) was 28 nM, the TGI (KM12 colon) was 1990 nM and the GI50 (LOX IMVI melanoma) was 453 nM. For the same compound, the TGI (LOX IMVI melanoma) was 2100 nM, the GI50 (MALME-3M melanoma) was 260 nM and the TGI (MALME-3M melanoma) was 11.5 µM. It also gave a GI50 (MCF7 breast) of 141 nM, a TGI (MCF7 breast) of 11.6 µM and a GI50 (MDA-MB-231 breast) of 398 nM. For the same compound, the TGI (MDA-MB-231 breast) was 15.4 µM, the GI50 (MDA-MB-435 melanoma) was 24.9 nM and the TGI (MDA-MB-435 melanoma) was 141 nM. It also gave a GI50 (MDA-MB-468 breast) of 53.3 nM, a TGI (MDA-MB-468 breast) of 204 nM and a GI50 (MOLT-4 leukemia) of 52 nM. For the same compound, the TGI (MOLT-4 leukemia) was 199 nM, the GI50 (NCI-H226 lung) was 400 nM and the TGI (NCI-H226 lung) was 7.39 µM. For the same compound, the GI50 (NCI-H23 lung) was 269 nM, the TGI (NCI-H23 lung) was 6.96 µM and the GI50 (NCI-H322M lung) was 558 nM. The TGI (NCI-H322M lung) was 13.8 µM, the GI50 (NCI-H460 NSCLC) was 155 nM and the TGI (NCI-H460 NSCLC) was 630 nM. For the same compound, the GI50 (NCI-H522 lung) was 13.2 nM, the TGI (NCI-H522 lung) was 93.7 nM and the GI50 (NCI/ADR-RES ovarian) was 203 nM. The TGI (NCI/ADR-RES ovarian) was 787 nM, the GI50 (OVCAR-3 ovarian) was 21.9 nM and the TGI (OVCAR-3 ovarian) was 149 nM. The GI50 (OVCAR-4 ovarian) was 2160 nM, the TGI (OVCAR-4 ovarian) was 20.7 µM and the GI50 (OVCAR-5 ovarian) was 1620 nM. It also gave a TGI (OVCAR-5 ovarian) of 17.3 µM, a GI50 (PC-3 prostate) of 145 nM and a TGI (PC-3 prostate) of 8.34 µM. The GI50 (RPMI-8226 leukemia) was 154 nM, the TGI (RPMI-8226 leukemia) was 308 nM and the GI50 (RXF 393 renal) was 26.8 nM. The TGI (RXF 393 renal) was 380 nM, the GI50 (SF-268 CNS) was 281 nM and the TGI (SF-268 CNS) was 2700 nM. For the same compound, the GI50 (SF-295 CNS) was 246 nM, the TGI (SF-295 CNS) was 1230 nM and the GI50 (SF-539 CNS) was 244 nM. It also gave a TGI (SF-539 CNS) of 1070 nM, a GI50 (SK-MEL-2 melanoma) of 256 nM and a TGI (SK-MEL-2 melanoma) of 497 nM. The GI50 (SK-MEL-28 melanoma) was 311 nM, the TGI (SK-MEL-28 melanoma) was 16.6 µM and the GI50 (SK-MEL-5 melanoma) was 115 nM. It also gave a TGI (SK-MEL-5 melanoma) of 595 nM, a GI50 (SK-OV-3 ovarian) of 184 nM and a TGI (SK-OV-3 ovarian) of 3.71 µM. The GI50 (SN12C renal) was 401 nM, the TGI (SN12C renal) was 12.7 µM and the GI50 (SNB-19 CNS) was 347 nM. It also gave a TGI (SNB-19 CNS) of 12 µM, a GI50 (SNB-75 CNS) of 246 nM and a TGI (SNB-75 CNS) of 10.1 µM. The TGI (SR leukemia) was 14.9 nM, the GI50 (TK-10 renal) was 420 nM and the TGI (TK-10 renal) was 15.7 µM. For the same compound, the GI50 (U251 glioblastoma) was 280 nM, the TGI (U251 glioblastoma) was 1790 nM and the GI50 (UACC-62 melanoma) was 96.9 nM. The TGI (UACC-62 melanoma) was 525 nM, the GI50 (UO-31 renal) was 365 nM and the TGI (UO-31 renal) was 16.7 µM.
